Assay results reported in ChEMBL document CHEMBL1126858, “Synthesis of (R,S)-trans-8-hydroxy-2-[N-n-propyl-N-(3'-iodo-2'-propenyl)amino]tetral in (trans-8-OH-PIPAT): a new 5-HT1A receptor ligand” (J Med Chem, 1993).

Experiments:
[1] = target: T1, 5-hydroxytryptamine receptor 1A (Rattus norvegicus, UniProt P19327); assay: Binding affinity towards 5-hydroxytryptamine 1A receptor by the displacement of [125I]trans-8-OH-PIPAT in membrane homogenates of hippocampal tissue of rat brain; assay type: tissue-based, Hippocampus
T1 sequence (P19327 whole entry): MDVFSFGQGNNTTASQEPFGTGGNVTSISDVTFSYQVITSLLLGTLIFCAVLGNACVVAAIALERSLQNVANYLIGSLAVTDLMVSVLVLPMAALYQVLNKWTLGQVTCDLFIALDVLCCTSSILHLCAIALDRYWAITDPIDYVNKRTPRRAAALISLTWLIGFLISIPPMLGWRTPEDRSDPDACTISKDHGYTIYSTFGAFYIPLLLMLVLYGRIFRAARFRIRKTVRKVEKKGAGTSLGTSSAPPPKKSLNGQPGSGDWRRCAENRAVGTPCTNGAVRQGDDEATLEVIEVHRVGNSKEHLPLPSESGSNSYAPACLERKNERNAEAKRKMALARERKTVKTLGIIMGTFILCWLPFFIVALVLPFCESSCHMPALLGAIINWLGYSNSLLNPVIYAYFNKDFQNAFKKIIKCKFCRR

[2] = Hill coefficient of the compound; assay type: ADME
D(2) dopamine receptor = D(2) dopamine receptor (Homo sapiens, UniProt P14416); assay: Inhibitory activity against [125I]- NCQ298 binding to dopamine receptor D2 in Sf 9 cells; assay type: cell-based
Chain of D(2) dopamine receptor (P14416 whole entry): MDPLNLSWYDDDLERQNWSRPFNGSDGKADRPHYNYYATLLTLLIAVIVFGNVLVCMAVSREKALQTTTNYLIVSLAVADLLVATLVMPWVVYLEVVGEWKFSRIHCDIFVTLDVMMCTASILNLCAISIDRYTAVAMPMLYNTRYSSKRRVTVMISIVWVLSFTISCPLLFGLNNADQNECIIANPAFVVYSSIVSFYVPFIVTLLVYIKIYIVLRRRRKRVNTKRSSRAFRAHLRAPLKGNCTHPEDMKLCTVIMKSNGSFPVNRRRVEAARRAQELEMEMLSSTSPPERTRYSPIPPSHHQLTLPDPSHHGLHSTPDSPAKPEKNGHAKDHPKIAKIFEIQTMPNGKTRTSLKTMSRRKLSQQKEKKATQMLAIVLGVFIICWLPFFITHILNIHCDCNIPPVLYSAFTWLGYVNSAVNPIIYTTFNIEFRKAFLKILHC

D(3) dopamine receptor = D(3) dopamine receptor (Rattus norvegicus, UniProt P19020); assay: Inhibitory activity against [125I]- NCQ298 binding to dopamine receptor D3 in Sf 9 cells; assay type: cell-based
Chain of D(3) dopamine receptor (P19020 whole entry): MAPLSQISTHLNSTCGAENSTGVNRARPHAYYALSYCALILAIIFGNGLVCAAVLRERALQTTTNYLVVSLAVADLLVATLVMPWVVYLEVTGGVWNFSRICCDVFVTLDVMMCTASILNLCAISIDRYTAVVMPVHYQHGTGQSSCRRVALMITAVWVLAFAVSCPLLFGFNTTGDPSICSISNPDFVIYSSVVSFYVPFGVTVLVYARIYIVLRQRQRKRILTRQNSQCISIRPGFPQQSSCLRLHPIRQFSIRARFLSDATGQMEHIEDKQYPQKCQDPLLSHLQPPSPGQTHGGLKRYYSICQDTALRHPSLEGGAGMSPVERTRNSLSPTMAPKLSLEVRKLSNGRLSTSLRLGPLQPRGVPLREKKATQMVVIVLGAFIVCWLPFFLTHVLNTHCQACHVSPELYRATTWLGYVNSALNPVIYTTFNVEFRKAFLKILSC

Rattus norvegicus = species: Rattus norvegicus; assay: Inhibitory activity against (125I)-(R,S)-trans-8-OH-PIPAT binding to the rat hippocampal homogenate; assay type: functional, Hippocampus

Row | SMILES | Ki [1] [nM] | Hill coefficient [2] | other results
1 | COc1cccc(OC)c1OCCNCC1COc2ccccc2O1 (configuration not stated) | 2.68 | – | –
2 | CCCN(C/C=C/I)C1CCc2ccc(O)cc2C1 (racemic) | – | 0.9 | –
3 | CCCN(C/C=C/I)C1CCc2cccc(O)c2C1 (racemic) | 0.3 | 0.85 | Ki (D(2) dopamine receptor): 1070 nM; Ki (D(3) dopamine receptor): 125 nM
4 | CCCN(CCC)C1CCc2ccc(O)cc2C1 (racemic) | 72.7 | 0.82 | –
5 | CCCN(CCC)C1CCc2cccc(O)c2C1 (racemic) [8-OH-DPAT] | – | 0.83 | Ki (D(3) dopamine receptor): 251 nM; Ki (Rattus norvegicus): 0.91 nM
6 | CC(C)NCC(O)COc1cccc2ccccc12 (racemic) [PROPRANOLOL] | – | 0.99 | –
7 | NCCc1ccc(O)c(O)c1 [DOPAMINE] | > 10000 | – | –
8 | O=C(c1ccc(F)cc1)C1CCN(CCn2c(=O)[nH]c3ccccc3c2=O)CC1 [KETANSERIN] | – | 1.04 | –
9 | NCCc1c[nH]c2ccc(O)cc12 [SEROTONIN] | – | 1.04 | –
10 | O=C(CCCN1CCC2(CC1)C(=O)NCN2c1ccccc1)c1ccc(F)cc1 [SPIPERONE] | 602 | 0.86 | –
